Measured values from the supplement of paper PMC9663587.

Columns and labels:
Cabozantinib = compound: COc1cc2nccc(Oc3ccc(NC(=O)C4(C(=O)Nc5ccc(F)cc5)CC4)cc3)c2cc1OC [Cabozantinib]
BSJ-03-123 = compound: CC(=O)c1c(C)c2cnc(Nc3ccc(N4CCN(CCOCCOCCOCCNC(=O)COc5cccc6c5C(=O)N(C5CCC(=O)NC5=O)C6=O)CC4)cn3)nc2n(C2CCCC2)c1=O [BSJ-03-123]
[1] = compound: CCc1cnn2c(NCc3ccc[n+]([O-])c3)cc(N3CCCC[C@H]3CCO)nc12
Vorinostat = compound: O=C(CCCCCCC(=O)Nc1ccccc1)NO [Vorinostat]
Buparlisib/NVP-BKM120 = compound: Nc1cc(C(F)(F)F)c(-c2cc(N3CCOCC3)nc(N3CCOCC3)n2)cn1 [Buparlisib/NVP-BKM120]
Paclitaxel = compound: CC(=O)O[C@H]1C(=O)[C@@]2(C)[C@H]([C@H](OC(=O)c3ccccc3)[C@]3(O)C[C@H](OC(=O)[C@H](O)[C@@H](NC(=O)c4ccccc4)c4ccccc4)C(C)=C1C3(C)C)[C@]1(OC(C)=O)CO[C@@H]1C[C@@H]2O [Paclitaxel]
SHP099 = compound: CC1(CCN(CC1)C2=CN=C(C(=N2)N)C3=C(C(=CC=C3)Cl)Cl)N [SHP099]
AZD5363 = compound: NC1(C(=O)N[C@@H](CCO)c2ccc(Cl)cc2)CCN(c2nc[nH]c3nccc2-3)CC1 [AZD5363]
[2] = compound: CCN1CCN(Cc2ccc(Nc3ncc(F)c(-c4cc(F)c5nc(C)n(C(C)C)c5c4)n3)nc2)CC1
[3] = compound: CCc1cnn2c(NCc3ccc[n+]([O-])c3)cc(N3CCCC[C@H]3CCO)nc12; experiment: GR value, 72 h; higher = faster growth (1 = untreated, <0 = killing);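 also: breast cancer and non-malignant breast epithelial lines, nine half-log doses, viable cells counted by Hoechst and LIVE/DEAD dye imaging versus time-zero plates and DMSO controls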
LEE011/Ribociclib = compound: CN(C)C(=O)c1cc2cnc(Nc3ccc(N4CCNCC4)cn3)nc2n1C1CCCC1 [LEE011/Ribociclib]; experiment: as above
THZ1 = compound: CN(C)C/C=C/C(=O)Nc1ccc(C(=O)Nc2cccc(Nc3ncc(Cl)c(-c4c[nH]c5ccccc45)n3)c2)cc1 [THZ1]; experiment: as above
THZ531 = compound: CN(C)C/C=C/C(=O)Nc1ccc(C(=O)N2CCC[C@@H](Nc3ncc(Cl)c(-c4c[nH]c5ccccc45)n3)C2)cc1 [THZ531]; experiment: as above
Flavopiridol = compound: CN1CC[C@H](c2c(O)cc(O)c3c(=O)cc(-c4ccccc4Cl)oc23)[C@H](O)C1 [Flavopiridol]; experiment: as above
[4] = compound: CC(=O)c1c(C)c2cnc(Nc3ccc(N4CCNCC4)cn3)nc2n(C2CCCC2)c1=O; experiment: as above
[5] = compound: CCN1CCN(Cc2ccc(Nc3ncc(F)c(-c4cc(F)c5nc(C)n(C(C)C)c5c4)n3)nc2)CC1; experiment: as above
YKL-5-124 = compound: C=CC(=O)Nc1ccc(C(=O)Nc2[nH]nc3c2CN(C(=O)N[C@H](CN(C)C)c2ccccc2)C3(C)C)cc1 [YKL-5-124]; experiment: as above
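For GR50, 72 h in this document: breast cancer and non-malignant breast epithelial cell lines, Deep Dye Drop or Dye Drop imaging, nine half-log doses, GR normalized to time-zero plates and DMSO-only controls.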

MCF10A
GR50, 72 h (Cabozantinib): > 10 µM
GR50, 72 h (BSJ-03-123): 1.09 µM
GR50, 72 h [1]: 0.0162 µM
GR50, 72 h (Vorinostat): 2.53 µM
GR50, 72 h (Buparlisib/NVP-BKM120): 1.47 µM
GR50, 72 h (Paclitaxel): 0.00268 µM
GR50, 72 h (SHP099): > 10 µM
GR50, 72 h (AZD5363): > 10 µM
GR50, 72 h [2]: 0.34 µM
GR value ([3]; 0.0001 µM): 1.01 GR
GR value ([3]; 0.0003162 µM): 1.01 GR
GR value ([3]; 0.001 µM): 1.02 GR
GR value ([3]; 0.003162 µM): 1.04 GR
GR value ([3]; 0.01 µM): 0.958 GR
GR value ([3]; 0.03162 µM): -0.188 GR
GR value ([3]; 0.1 µM): -0.226 GR
GR value ([3]; 0.3162 µM): -0.223 GR
GR value ([3]; 1 µM): -0.223 GR
GR value (LEE011/Ribociclib; 0.001 µM): 0.91 GR
GR value (LEE011/Ribociclib; 0.003162 µM): 0.888 GR
GR value (LEE011/Ribociclib; 0.01 µM): 0.821 GR
GR value (LEE011/Ribociclib; 0.03162 µM): 0.781 GR
GR value (LEE011/Ribociclib; 0.1 µM): 0.79 GR
GR value (LEE011/Ribociclib; 0.3162 µM): 0.756 GR
GR value (LEE011/Ribociclib; 1 µM): 0.732 GR
GR value (LEE011/Ribociclib; 3.162 µM): 0.665 GR
GR value (LEE011/Ribociclib; 10 µM): 0.434 GR
GR value (THZ1; 0.0001 µM): 0.995 GR
GR value (THZ1; 0.0003162 µM): 1.01 GR
GR value (THZ1; 0.001 µM): 0.985 GR
GR value (THZ1; 0.003162 µM): 0.992 GR
GR value (THZ1; 0.01 µM): 0.896 GR
GR value (THZ1; 0.03162 µM): 0.69 GR
GR value (THZ1; 0.1 µM): 0.32 GR
GR value (THZ1; 0.3162 µM): -0.0551 GR
GR value (THZ1; 1 µM): -0.563 GR
GR value (THZ531; 0.0001 µM): 0.985 GR
GR value (THZ531; 0.0003162 µM): 0.995 GR
GR value (THZ531; 0.001 µM): 1.01 GR
GR value (THZ531; 0.003162 µM): 1 GR
GR value (THZ531; 0.01 µM): 1.01 GR
GR value (THZ531; 0.03162 µM): 0.981 GR
GR value (THZ531; 0.1 µM): 0.903 GR
GR value (THZ531; 0.3162 µM): 0.612 GR
GR value (THZ531; 1 µM): -0.625 GR
GR value (Flavopiridol; 0.0001 µM): 1.01 GR
GR value (Flavopiridol; 0.0003162 µM): 1.01 GR
GR value (Flavopiridol; 0.001 µM): 1.03 GR
GR value (Flavopiridol; 0.003162 µM): 1.03 GR
GR value (Flavopiridol; 0.01 µM): 1.04 GR
GR value (Flavopiridol; 0.03162 µM): 1.03 GR
GR value (Flavopiridol; 0.1 µM): 0.822 GR
GR value (Flavopiridol; 0.3162 µM): -0.322 GR
GR value (Flavopiridol; 1 µM): -0.67 GR
GR value ([4]; 0.0003162 µM): 0.996 GR
GR value ([4]; 0.001 µM): 0.999 GR
GR value ([4]; 0.003162 µM): 0.979 GR
GR value ([4]; 0.01 µM): 0.939 GR
GR value ([4]; 0.03162 µM): 0.852 GR
GR value ([4]; 0.1 µM): 0.748 GR
GR value ([4]; 0.3162 µM): 0.653 GR
GR value ([4]; 1 µM): 0.582 GR
GR value ([4]; 3.162 µM): 0.444 GR
GR value ([5]; 0.001 µM): 0.981 GR
GR value ([5]; 0.003162 µM): 0.95 GR
GR value ([5]; 0.01 µM): 0.882 GR
GR value ([5]; 0.03162 µM): 0.78 GR
GR value ([5]; 0.1 µM): 0.665 GR
GR value ([5]; 0.3162 µM): 0.543 GR
GR value ([5]; 1 µM): 0.364 GR
GR value ([5]; 3.162 µM): 0.255 GR
GR value ([5]; 10 µM): 0.159 GR
GR value (YKL-5-124; 0.001 µM): 0.472 GR
GR value (YKL-5-124; 0.003162 µM): 0.235 GR
GR value (YKL-5-124; 0.01 µM): 0.149 GR
GR value (YKL-5-124; 0.03162 µM): 0.0788 GR
GR value (YKL-5-124; 0.1 µM): 0.0321 GR
GR value (YKL-5-124; 0.3162 µM): 0.0253 GR
GR value (YKL-5-124; 1 µM): 0.0094 GR
GR value (YKL-5-124; 3.162 µM): -0.0385 GR
GR value (YKL-5-124; 10 µM): -0.153 GR

MCF12A
GR50, 72 h (Cabozantinib): > 10 µM
GR50, 72 h (BSJ-03-123): 5.35 µM
GR50, 72 h [1]: 0.0371 µM
GR50, 72 h (Vorinostat): 6.67 µM
GR50, 72 h (Buparlisib/NVP-BKM120): 2.84 µM
GR50, 72 h (Paclitaxel): 0.00577 µM
GR50, 72 h (SHP099): > 10 µM
GR50, 72 h (AZD5363): > 10 µM
GR50, 72 h [2]: 5.94 µM
GR value ([3]; 0.0001 µM): 1.03 GR
GR value ([3]; 0.0003162 µM): 0.99 GR
GR value ([3]; 0.001 µM): 1.03 GR
GR value ([3]; 0.003162 µM): 1.03 GR
GR value ([3]; 0.01 µM): 1.08 GR
GR value ([3]; 0.03162 µM): 0.685 GR
GR value ([3]; 0.1 µM): -0.289 GR
GR value ([3]; 1 µM): -0.327 GR
GR value (LEE011/Ribociclib; 0.001 µM): 0.967 GR
GR value (LEE011/Ribociclib; 0.003162 µM): 0.953 GR
GR value (LEE011/Ribociclib; 0.01 µM): 0.948 GR
GR value (LEE011/Ribociclib; 0.03162 µM): 0.927 GR
GR value (LEE011/Ribociclib; 0.1 µM): 0.984 GR
GR value (LEE011/Ribociclib; 0.3162 µM): 0.897 GR
GR value (LEE011/Ribociclib; 1 µM): 0.867 GR
GR value (LEE011/Ribociclib; 3.162 µM): 0.914 GR
GR value (LEE011/Ribociclib; 10 µM): 0.792 GR
GR value (THZ1; 0.0001 µM): 0.997 GR
GR value (THZ1; 0.0003162 µM): 0.989 GR
GR value (THZ1; 0.001 µM): 1 GR
GR value (THZ1; 0.003162 µM): 0.958 GR
GR value (THZ1; 0.01 µM): 0.984 GR
GR value (THZ1; 0.03162 µM): 0.851 GR
GR value (THZ1; 0.1 µM): 0.569 GR
GR value (THZ1; 0.3162 µM): 0.338 GR
GR value (THZ1; 1 µM): -0.312 GR
GR value (THZ531; 0.0001 µM): 0.942 GR
GR value (THZ531; 0.0003162 µM): 1.02 GR
GR value (THZ531; 0.001 µM): 1 GR
GR value (THZ531; 0.003162 µM): 0.929 GR
GR value (THZ531; 0.01 µM): 1.01 GR
GR value (THZ531; 0.03162 µM): 0.967 GR
GR value (THZ531; 0.1 µM): 1 GR
GR value (THZ531; 0.3162 µM): 0.894 GR
GR value (THZ531; 1 µM): -0.0356 GR
GR value (Flavopiridol; 0.0001 µM): 1.04 GR
GR value (Flavopiridol; 0.0003162 µM): 0.977 GR
GR value (Flavopiridol; 0.001 µM): 0.895 GR
GR value (Flavopiridol; 0.003162 µM): 0.982 GR
GR value (Flavopiridol; 0.01 µM): 0.961 GR
GR value (Flavopiridol; 0.03162 µM): 0.949 GR
GR value (Flavopiridol; 0.1 µM): 0.856 GR
GR value (Flavopiridol; 0.3162 µM): 0.621 GR
GR value (Flavopiridol; 1 µM): -0.121 GR
GR value ([4]; 0.0003162 µM): 1.04 GR
GR value ([4]; 0.001 µM): 1.03 GR
GR value ([4]; 0.003162 µM): 1.02 GR
GR value ([4]; 0.01 µM): 0.974 GR
GR value ([4]; 0.03162 µM): 0.921 GR
GR value ([4]; 0.1 µM): 0.889 GR
GR value ([4]; 0.3162 µM): 0.912 GR
GR value ([4]; 1 µM): 0.758 GR
GR value ([4]; 3.162 µM): 0.667 GR
GR value ([5]; 0.001 µM): 0.987 GR
GR value ([5]; 0.003162 µM): 0.945 GR
GR value ([5]; 0.01 µM): 0.955 GR
GR value ([5]; 0.03162 µM): 0.943 GR
GR value ([5]; 0.1 µM): 0.872 GR
GR value ([5]; 0.3162 µM): 0.822 GR
GR value ([5]; 1 µM): 0.727 GR
GR value ([5]; 3.162 µM): 0.616 GR
GR value ([5]; 10 µM): 0.386 GR
GR value (YKL-5-124; 0.001 µM): 0.573 GR
GR value (YKL-5-124; 0.003162 µM): 0.316 GR
GR value (YKL-5-124; 0.01 µM): 0.235 GR
GR value (YKL-5-124; 0.03162 µM): 0.17 GR
GR value (YKL-5-124; 0.1 µM): 0.135 GR
GR value (YKL-5-124; 0.3162 µM): 0.153 GR
GR value (YKL-5-124; 1 µM): 0.131 GR
GR value (YKL-5-124; 3.162 µM): 0.107 GR
GR value (YKL-5-124; 10 µM): 0.0273 GR
